Entries after “also recorded” stand apart in the source; their conditions may differ.
Legend:
[1] = system: astrocytes; assay: Extracellular medium acidification (SNARF5) assay in astrocytes; format: cell-based; settings: Mus musculus, Astrocyte, 1.5 h; astrocytes in vitro, 90 min stimulation, 10 nM to 30 μM
Experimental: Secretion of lactate was measured indirectly through the acidification of extracellular medium using extracellular pH sensor SNARE-5F-(AND-6)-CAR (SNARF5) as described below.
Secretion of lactate was measured indirectly through the acidification of extracellular medium using extracellular pH sensor […] (SNARF5). After washing cells twice with stimulation medium (DMEM (D5030, Sigma), 1 mM […], and 5 mM Glucose, pH 7.4) at 37° C., cells were stimulated with compounds at a final concentration ranging from 10 nM to 30 μM in 50 μl per well of stimulation medium supplemented with 10 μM of SNARF5 (Life Technologies Corporation). Each compound was tested in two different plates for duplicates. After 90 min stimulation, fluorescence was read at exc. (excitation) 480 nm/emm. (emission) 580 nm and at exc 480 nm/emm. 630 nm. The ratio of fluorescence between 630 nm and 580 emission values, which is proportional to extracellular pH, was calculated. In each plate, 8 wells were used for negative controls (DMSO 0.1%) and 8 wells were used for positive controls (CCCP 2 μM in DMSO).
Table 3 below lists compounds that are active on the extracellular medium acidification (SNARF5) assay in astrocytes in vitro, which indicates their ability to produce lactate. ‘+’ indicates activity of compounds with EC50>5 μM; ‘++’ indicates activity of compounds with EC50<5 μM.
Primary cultures of cerebrocortical astrocytes were obtained from 1 to 2-day-old OF1 mouse pups (Charles River). Briefly, cortices were isolated and minced in small pieces under a dissecting microscope. The cells were incubated for 30 min at 37° C. in a solution containing 20 U/ml papain, 1 mM L-cysteine and 10 kU/ml DNase I. After dissociation, papain activity was stopped by the addition of fetal calf serum (FCS). Single-cell suspension was then obtained by mechanical dissociation, which consisted in cells trituration in a DMEM D7777 medium supplemented with 44 mm NaHCO3, 10 ml/L antibiotic/antimycotic solution and 10% FCS. The cells were seeded at an average density of ˜10′000 cells/cm^2 on poly-D-lysine coated 96- or 12-well culture plates, depending on their use, and grown in DMEM D7777 medium supplemented with 44 mm NaHCO3, 10 ml/L antibiotic/antimycotic solution and 10% FCS at 37° C. in a humidified atmosphere containing 5% CO2/95% air. Culture medium was renewed twice a week. Cells were stimulated and harvested between DIV14 and DIV17, when confluence and cell growth were optimal.

[2] = system: astrocytes transfected with GLUT1 siRNA; assay: Lactate secretion, GLUT1 siRNA astrocytes (cellular model of GLUT1-DS); format: cell-based, mouse; settings: vs vehicle
Experimental: Secretion of L-lactate was measured in the extracellular medium of 96-well plated astrocytes after 90 min stimulation (at 37° C., in 5% CO2/95% air conditions) with Vehicle (DMSO), the compounds of the invention (100 nM to 100 μM) or positive control. […] Stimulation medium was composed of D5030 medium complemented with 5 mM D-glucose and 44 mM sodium bicarbonate, pH 7.2. To quantify lactate concentrations in the extracellular medium, 200 μl of a 0.2M Glycine-semicarbazide buffer (pH 10) containing 3 mM NAD and 14 U/ml LDH was added to each well of a 96-well plate containing 30 μl aliquots of extracellular medium. Samples were incubated at 37° C. for 1 h. Fluorescence intensity (340 nm excitation/450 nm emission), which represents the amount of NADH produced, was measured, and lactate concentration values were determined relative to a standard curve of L-lactate concentrations.
Scramble and GLUT1 siRNA sequences were as following:
Cells were grown in transfection medium for 3 days at 37° C. in a humidified atmosphere containing 5% CO2/95% air. After 3 days, transfection medium was replaced with DMEM D5030 supplemented with 44 mM NaHCO3 and 5 mM D-Glucose (1 ml per well).
Lactate secretion after treatment with Veh or compound of the invention (1) was measured in astrocytes transfected with scramble siRNA or GLUT1 siRNA (FIG. 4B).

COc1cc2ccnc(Nc3ccc(OC(F)(F)F)cc3)c2cc1OC [Example 1, 6,7-dimethoxy-N-(4-(trifluoromethoxy)phenyl)isoquinolin-1-amine]
EC50 [1]: > 5 µM | Lactate secretion [2]: restored; also recorded: significantly enhances lactate secretion

Source: US11925632B2, “Isoquinoline derivatives for use in treating GLUT1 deficiency syndrome” (GLIAPHARM SA, priority 2019, dated 2024)
